Measured values: PMC10700347, “Semisynthesis of 5-O-ester derivatives of renieramycin T and their cytotoxicity against non-small-cell lung cancer cell lines” (Scientific Reports, 2023)
Read-outs that look alike come from different tables or passages of the source.

Legend:
Type in all cases: cell-based
[1] = test system: human keratinocyte (HaCaT) cell line; experiment: MTT cell viability on normal cell line HaCaT; conditions: 24 h, read-out: IC50 ± S.D. HaCaT
Method: (§1) DP and BEAS-2B were seeded into 96-well plates at densities of 1 × 10^4 cells per well, while HaCaT cells were seeded at densities of 5 × 10^3 cells per well. The cells were allowed to adhere for 24 h. Subsequently, the cells were treated with various concentrations of compounds 3a–3o, 4a, and 4b at 72 h for DP cells and at 24 h for HaCaT and BEAS-2B cells. After the treatment period, cells were incubated with 0.5 mg/ml of MTT for 2 h. The resulting MTT product was measured at 570 nm using a spectrophotometric microplate reader. Cell viability was calculated by comparing the optical density (OD) measurements to those of the untreated control, and the results were expressed as a percentage.

[2] = test system: non-tumorigenic bronchial epithelial (BEAS-2B) cell line; experiment: MTT cell viability on normal cell line BEAS-2B; conditions: BEAS-2B normal cell line, 24 h, read-out: IC50 ± S.D. BEAS-2B
Method: as §1

[3] = test system: H292 non-small-cell lung cancer cell line; experiment: cells; conditions: for IC50: H292, MTT, 72 h, read-out: IC50 ± S.D. H292
Method: (§2) The in vitro cytotoxicity of all the semisynthesized esters and their precursors against H292 and H460 human NSCLC cell lines was analyzed based on the mitochondrial dehydrogenase activity via the MTT assay[43] (Table 1). The compounds were tested at doses of 1–250 nM. Cisplatin and doxorubicin, which are the standard chemotherapeutic drugs for the treatment of NSCLC, were used as positive controls. […] However, the extended use of 1 is limited by the concerns for unwanted necrosis, which is an unprogrammed form of cell death caused by the presence of two quinone moieties. […] The IC50 values of the 5-O-ester derivatives 3a, 3b, 3d, 3h, 3i, and 3k were in the same range as the mother compound 1.
(§3) The in vitro cytotoxicity of compounds 3a–3o, 4a, and 4b was determined against the H292 and H460 NSCLC cell lines by the MTT colorimetric assay. Each compound was dissolved in DMSO to prepare a 10 mM stock solution. Both the H292 and H460 cells were cultured in RPMI 1640 medium supplemented with 2 mM L-glutamine, 10% FBS, and 100 units/mL of penicillin–streptomycin at 37 °C under 5% CO2. The NSCLC cells were trypsinized and seeded with a density of 5 × 10^3 cells/well in a 96-well plate, followed by overnight incubation. Serial dilutions of the test compounds ranging from 1 to 250 nM were prepared in the presence of DMSO (< 0.2% v/v). […] After incubation, formazan crystals were solubilized by adding 100 µL of DMSO, and their absorbance was measured at 570 nm by a spectrophotometric microtiter plate reader (PerkinElmer Victor 3 1420 Multilabel Plate Counter). Cell viability was calculated as the percentage of nontreated control cells. The mean IC50 values were obtained from three independent experiments. Each experiment was conducted in triplicate with at least five concentrations of the tested compounds. The GraphPad Prism software (version 5) was used to calculate the average IC50 and standard deviation (S.D.) values for each experiment. Cisplatin and doxorubicin were used as the positive controls, while 0.2% DMSO served as the negative control.

[4] = test system: H460 non-small-cell lung cancer cell line; experiment: cells; conditions: for IC50: H460, MTT, 72 h, read-out: IC50 ± S.D. H460
Method: as §2, §3

[5] = test system: dermal papilla (DP) cell line; experiment: MTT cell viability on normal cell line DP; conditions: 72 h
Method: as §1

Compound | IC50 [1] [nM] | IC50 [2] [nM] | IC50 [3] [nM] | IC50 [4] [nM] | IC50 [5] [nM] | IC50 ([1]; Homo sapiens) [nM] | IC50 ([2]; Homo sapiens) [nM] | IC50 ([3]; Homo sapiens, NCI-H292) [nM] | IC50 ([4]; Homo sapiens, NCI-H460) [nM] | Reduction in cytotoxicity against H292 [3] [fold] | Reduction in cytotoxicity against H460 [4]
N.N.[Cl][Pt][Cl] [Cisplatin, reference compound] | 14300 | > 20000 | 4230 | 3860 | 10800 | – | – | – | – | – | –
CC=C(C)C(=O)OCC1c2c(c(O)c(C)c3c2OCO3)CC2C3C4=C(CC(C(C#N)N12)N3C)C(=O)C(C)=C(OC)C4=O (stereo not drawn) [Compound 2, renieramycin T] | – | – | – | – | 51 ± 0.08 | 89.2 ± 4.29 | 163 ± 24.2 | 72.8 ± 2.88 | 84 ± 3.63 | – | –
CC=C(C)C(=O)OCC1c2c(c(OC(C)=O)c(C)c3c2OCO3)CC2C3C4=C(CC(C(C#N)N12)N3C)C(=O)C(C)=C(OC)C4=O (stereo not drawn) [Compound 3a, 5-O-acetyl renieramycin T] | – | – | – | – | 11.7 ± 0.59 | 9.49 ± 2.12 | > 250 | 43.4 ± 3 | 35.7 ± 2.11 | – | –
C/C=C(/C)C(=O)OC[C@H]1c2c(c(OC(=O)CNC(=O)OC(C)(C)C)c(C)c3c2OCO3)C[C@H]2[C@H]3C4=C(C[C@@H]([C@H](C#N)N12)N3C)C(=O)C(C)=C(OC)C4=O [Compound 3c] | – | – | – | – | 5.35 ± 0.27 | 23.1 ± 1.38 | > 250 | 39 ± 5.63 | 41.6 ± 4.15 | – | –
C/C=C(/C)C(=O)OC[C@H]1c2c(c(OC(=O)[C@H](C)NC(=O)OC(C)(C)C)c(C)c3c2OCO3)C[C@H]2[C@H]3C4=C(C[C@@H]([C@H](C#N)N12)N3C)C(=O)C(C)=C(OC)C4=O [Compound 3d, 5-O-(N-Boc-L-alanine)-renieramycin T] | – | – | – | – | 25.8 ± 1.05 | 58.5 ± 6.68 | 232 ± 26.1 | 39.5 ± 1.18 | 33 ± 1.55 | – | –
C/C=C(/C)C(=O)OC[C@H]1c2c(c(OC(=O)[C@@H](NC(=O)OC(C)(C)C)C(C)C)c(C)c3c2OCO3)C[C@H]2[C@H]3C4=C(C[C@@H]([C@H](C#N)N12)N3C)C(=O)C(C)=C(OC)C4=O [Compound 3e] | – | – | – | – | 50 ± 1.49 | 80.2 ± 4.1 | > 250 | 89.6 ± 5.03 | 76.1 ± 2.77 | – | –
C/C=C(/C)C(=O)OC[C@H]1c2c(c(OC(=O)[C@H](Cc3ccccc3)NC(=O)OC(C)(C)C)c(C)c3c2OCO3)C[C@H]2[C@H]3C4=C(C[C@@H]([C@H](C#N)N12)N3C)C(=O)C(C)=C(OC)C4=O [Compound 3f] | – | – | – | – | 39.8 ± 9.88 | 61.2 ± 3.43 | 181 ± 12.1 | 54.1 ± 4.78 | 50.7 ± 3.5 | – | –
C/C=C(/C)C(=O)OC[C@H]1c2c(c(OC(=O)c3ccccn3)c(C)c3c2OCO3)C[C@H]2[C@H]3C4=C(C[C@@H]([C@H](C#N)N12)N3C)C(=O)C(C)=C(OC)C4=O [Compound 3g] | – | – | – | – | 35.2 ± 4.13 | 74.3 ± 6.88 | > 250 | 51.5 ± 1.67 | 43.6 ± 1.36 | – | –
C/C=C(/C)C(=O)OC[C@H]1c2c(c(OC(=O)c3ccncc3)c(C)c3c2OCO3)C[C@H]2[C@H]3C4=C(C[C@@H]([C@H](C#N)N12)N3C)C(=O)C(C)=C(OC)C4=O [Compound 3h] | – | – | – | – | 4.83 ± 2.18 | 53.8 ± 7.07 | 223 ± 23.1 | 35.3 ± 1.09 | 35.6 ± 1.64 | – | –
C/C=C(/C)C(=O)OC[C@H]1c2c(c(OC(=O)c3ccc4ccccc4n3)c(C)c3c2OCO3)C[C@H]2[C@H]3C4=C(C[C@@H]([C@H](C#N)N12)N3C)C(=O)C(C)=C(OC)C4=O [Compound 3i, 5-O-(2-quinolinecarbonyl) ester] | – | – | – | – | 8.77 ± 1.94 | 28 ± 3.76 | 151 ± 19 | 36.5 ± 1.82 | 43.3 ± 4.29 | – | –
C/C=C(/C)C(=O)OC[C@H]1c2c(c(OC(=O)c3cnc4ccccc4c3)c(C)c3c2OCO3)C[C@H]2[C@H]3C4=C(C[C@@H]([C@H](C#N)N12)N3C)C(=O)C(C)=C(OC)C4=O [Compound 3j, 5-O-(3-quinolinecarbonyl) ester] | – | – | – | – | 37.6 ± 0.47 | 109 ± 7.38 | > 250 | 77.8 ± 5.79 | 86.1 ± 6.34 | – | –
C/C=C(/C)C(=O)OC[C@H]1c2c(c(OC(=O)/C=C/c3cccnc3)c(C)c3c2OCO3)C[C@H]2[C@H]3C4=C(C[C@@H]([C@H](C#N)N12)N3C)C(=O)C(C)=C(OC)C4=O [Compound 3k] | – | – | – | – | 8.36 ± 2.31 | 9.64 ± 0.93 | 114 ± 13.2 | 36.3 ± 2.06 | 38.8 ± 7.25 | – | –
C/C=C(/C)C(=O)OC[C@H]1c2c(c(OC(=O)c3c[nH]c4ccccc34)c(C)c3c2OCO3)C[C@H]2[C@H]3C4=C(C[C@@H]([C@H](C#N)N12)N3C)C(=O)C(C)=C(OC)C4=O [Compound 3l] | – | – | – | – | 72.1 ± 3.01 | 109 ± 6.99 | > 250 | 69.4 ± 1.61 | 57.9 ± 0.77 | – | –
C/C=C(/C)C(=O)OC[C@H]1c2c(c(OC(=O)c3ccco3)c(C)c3c2OCO3)C[C@H]2[C@H]3C4=C(C[C@@H]([C@H](C#N)N12)N3C)C(=O)C(C)=C(OC)C4=O [Compound 3m] | – | – | – | – | 25.29 ± 0.24 | 42.1 ± 3.13 | > 250 | 42.5 ± 3.84 | 42.9 ± 5.21 | – | –
C/C=C(/C)C(=O)OC[C@H]1c2c(c(OC(=O)c3cccs3)c(C)c3c2OCO3)C[C@H]2[C@H]3C4=C(C[C@@H]([C@H](C#N)N12)N3C)C(=O)C(C)=C(OC)C4=O [Compound 3n, 5-O-(2-thiophenecarbonyl) ester] | – | – | – | – | 68.6 ± 6.25 | 139 ± 6.16 | > 250 | 137 ± 6.3 | 123 ± 4.99 | – | –
C/C=C(/C)C(=O)OC[C@H]1c2c(c(OC(=O)c3ccc[nH]3)c(C)c3c2OCO3)C[C@H]2[C@H]3C4=C(C[C@@H]([C@H](C#N)N12)N3C)C(=O)C(C)=C(OC)C4=O [Compound 3o] | – | – | – | – | 50 ± 7.81 | 65.2 ± 1.52 | 220 ± 29.7 | 56.9 ± 2.66 | 58.3 ± 3.56 | – | –
C/C=C(/C)C(=O)OC[C@H]1C2=C(C[C@H]3[C@H]4C5=C(C[C@@H]([C@H](C#N)N13)N4C)C(=O)C(C)=C(OC)C5=O)C(=O)C(C)=C(OC(=O)CC)C2=O [Compound 4a, 7-O-(propanoyl) ester derivative of renieramycin S] | – | – | – | – | 77.4 ± 9.9 | 230 ± 22.7 | > 250 | 99.87 ± 0.91 | 164 ± 4.16 | 3 | fivefold
C/C=C(/C)C(=O)OC[C@H]1C2=C(C[C@H]3[C@H]4C5=C(C[C@@H]([C@H](C#N)N13)N4C)C(=O)C(C)=C(OC)C5=O)C(=O)C(C)=C(OC(=O)c1cccnc1)C2=O [Compound 4b, 7-O-(3-pyridinecarbonyl) ester derivative of renieramycin S] | – | – | – | – | 67.5 ± 5.46 | 192 ± 22.2 | > 250 | 100 ± 1.59 | 104 ± 2.2 | 3 | fivefold
COc1cccc2c1C(=O)c1c(O)c3c(c(O)c1C2=O)C[C@@](O)(C(=O)CO)C[C@@H]3O[C@H]1C[C@H](N)[C@H](O)[C@H](C)O1 [Doxorubicin, reference compound] | – | – | – | – | 58 ± 24.4 | 915 ± 50.2 | 663 | 40.8 ± 6.89 | 43.9 ± 6.26 | – | –
